The target of experiment [1] is T1, ACVR1B (Homo sapiens, UniProt P36896).
T1 construct: purchased Ambit KINOMEscan (DiscoverX)
The experiment in a line: KINOMEscan. The experiment is classed as binding. Particulars: 1 uM. The gist of the method: (§1)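 Substrate-binding inhibition measured with compound present at 1 μM, single concentration, to pick out affected kinases.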

Experiment [2] has as its target T2, CAMK2A (Homo sapiens, UniProt Q9UQM7).
T2 construct: purchased Ambit KINOMEscan (DiscoverX)
The experiment can be described thus: KINOMEscan. Type of experiment: binding. Particulars: 1 uM. An outline of the steps:
as §1

Experiment [3] addresses T3, DYRK2 (Homo sapiens, UniProt Q92630).
T3 construct: purchased Ambit KINOMEscan (DiscoverX)
The experiment can be described thus: KINOMEscan. Type of experiment: binding. The settings on record: DYRK2, 1 uM. An outline of the steps:
as §1

In experiment [4] the target is T4, EPHA5 (Homo sapiens, UniProt P54756).
T4 construct: purchased Ambit KINOMEscan (DiscoverX)
The experiment in a line: KINOMEscan. The experiment is classed as binding. Particulars: EPHA5, 1 uM. An outline of the steps: as §1

Experiment [5] concerns the target T5, ERBB2 (Homo sapiens, UniProt P04626).
T5 construct: purchased Ambit KINOMEscan (DiscoverX)
The experiment can be described thus: KINOMEscan. Type of experiment: binding. Particulars: ERBB2, 1 uM. The gist of the method:
as §1

The target of experiment [6] is T6, LCK (Homo sapiens, UniProt P06239).
T6 construct: purchased Ambit KINOMEscan (DiscoverX)
The experiment can be described thus: KINOMEscan. Type of experiment: binding. The settings on record: 1 uM. The gist of the method:
as §1

In experiment [7] the target is T7, LKB1 (Homo sapiens, UniProt Q15831).
T7 construct: purchased Ambit KINOMEscan (DiscoverX)
The experiment in a line: KINOMEscan. The experiment is classed as binding. Particulars: LKB1, 1 uM. An outline of the steps: as §1

In experiment [8] the target is T8, PIK3CA(H1047Y) (Homo sapiens, UniProt P42336, H1047Y).
T8 construct: purchased Ambit KINOMEscan (DiscoverX)
The experiment in a line: KINOMEscan. The experiment is classed as binding. Particulars: 1 uM. An outline of the steps: as §1

Experiment [9] addresses T9, MAPKAPK2 (Homo sapiens, UniProt P49137).
T9 construct: purchased Ambit KINOMEscan (DiscoverX)
The experiment can be described thus: KINOMEscan. Type of experiment: binding. The settings on record: MAPKAPK2, 1 uM.

The target of experiment [10] is T10, MAP4K2 (Homo sapiens, UniProt Q12851).
T10 construct: purchased Ambit KINOMEscan (DiscoverX)
T10 sequence (Q12851 1-820): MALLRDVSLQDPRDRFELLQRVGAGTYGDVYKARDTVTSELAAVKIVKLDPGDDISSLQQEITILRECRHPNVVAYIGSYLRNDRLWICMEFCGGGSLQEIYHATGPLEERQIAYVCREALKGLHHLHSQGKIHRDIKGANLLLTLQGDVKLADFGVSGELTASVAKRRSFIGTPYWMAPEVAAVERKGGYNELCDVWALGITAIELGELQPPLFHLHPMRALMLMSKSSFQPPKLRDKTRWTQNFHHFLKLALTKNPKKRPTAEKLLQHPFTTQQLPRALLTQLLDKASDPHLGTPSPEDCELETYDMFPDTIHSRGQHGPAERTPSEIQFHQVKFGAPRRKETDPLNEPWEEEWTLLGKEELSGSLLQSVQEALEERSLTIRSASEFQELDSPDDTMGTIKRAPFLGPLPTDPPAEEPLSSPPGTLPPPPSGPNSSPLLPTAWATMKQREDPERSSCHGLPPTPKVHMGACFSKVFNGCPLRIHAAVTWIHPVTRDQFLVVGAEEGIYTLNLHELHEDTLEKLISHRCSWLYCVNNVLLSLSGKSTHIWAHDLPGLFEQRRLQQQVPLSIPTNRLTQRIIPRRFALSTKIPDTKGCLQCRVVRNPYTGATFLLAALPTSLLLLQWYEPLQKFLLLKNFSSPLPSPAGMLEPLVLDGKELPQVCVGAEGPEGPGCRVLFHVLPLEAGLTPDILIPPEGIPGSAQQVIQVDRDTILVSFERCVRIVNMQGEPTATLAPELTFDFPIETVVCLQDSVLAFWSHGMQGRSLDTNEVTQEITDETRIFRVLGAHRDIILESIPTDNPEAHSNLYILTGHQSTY
The experiment in a line: SelectScreen in vitro kinase IC50. Type of experiment: biochemical. Particulars: Fig. S5. The method, then: (§2) First, we used Ambit's KINOMEscan™ technology to identify those kinases that are inhibited for substrate binding by the compounds, all assayed at 1 μM. Second, we used Invitrogen's SelectScreen® Biochemical Kinase Profiling Service to determine the in vitro IC50s for the compounds against specific kinases.

In experiment [11] the target is T11, HIPK1 (Homo sapiens, UniProt Q86Z02).
T11 construct: purchased Ambit KINOMEscan (DiscoverX)
The experiment in a line: SelectScreen in vitro kinase IC50. Type of experiment: biochemical. As for the experimental part:
as §2

Experiment [12] addresses T12, NEK1 (Homo sapiens, UniProt Q96PY6).
T12 construct: purchased Ambit KINOMEscan (DiscoverX)
T12 sequence (Q96PY6 1-1258): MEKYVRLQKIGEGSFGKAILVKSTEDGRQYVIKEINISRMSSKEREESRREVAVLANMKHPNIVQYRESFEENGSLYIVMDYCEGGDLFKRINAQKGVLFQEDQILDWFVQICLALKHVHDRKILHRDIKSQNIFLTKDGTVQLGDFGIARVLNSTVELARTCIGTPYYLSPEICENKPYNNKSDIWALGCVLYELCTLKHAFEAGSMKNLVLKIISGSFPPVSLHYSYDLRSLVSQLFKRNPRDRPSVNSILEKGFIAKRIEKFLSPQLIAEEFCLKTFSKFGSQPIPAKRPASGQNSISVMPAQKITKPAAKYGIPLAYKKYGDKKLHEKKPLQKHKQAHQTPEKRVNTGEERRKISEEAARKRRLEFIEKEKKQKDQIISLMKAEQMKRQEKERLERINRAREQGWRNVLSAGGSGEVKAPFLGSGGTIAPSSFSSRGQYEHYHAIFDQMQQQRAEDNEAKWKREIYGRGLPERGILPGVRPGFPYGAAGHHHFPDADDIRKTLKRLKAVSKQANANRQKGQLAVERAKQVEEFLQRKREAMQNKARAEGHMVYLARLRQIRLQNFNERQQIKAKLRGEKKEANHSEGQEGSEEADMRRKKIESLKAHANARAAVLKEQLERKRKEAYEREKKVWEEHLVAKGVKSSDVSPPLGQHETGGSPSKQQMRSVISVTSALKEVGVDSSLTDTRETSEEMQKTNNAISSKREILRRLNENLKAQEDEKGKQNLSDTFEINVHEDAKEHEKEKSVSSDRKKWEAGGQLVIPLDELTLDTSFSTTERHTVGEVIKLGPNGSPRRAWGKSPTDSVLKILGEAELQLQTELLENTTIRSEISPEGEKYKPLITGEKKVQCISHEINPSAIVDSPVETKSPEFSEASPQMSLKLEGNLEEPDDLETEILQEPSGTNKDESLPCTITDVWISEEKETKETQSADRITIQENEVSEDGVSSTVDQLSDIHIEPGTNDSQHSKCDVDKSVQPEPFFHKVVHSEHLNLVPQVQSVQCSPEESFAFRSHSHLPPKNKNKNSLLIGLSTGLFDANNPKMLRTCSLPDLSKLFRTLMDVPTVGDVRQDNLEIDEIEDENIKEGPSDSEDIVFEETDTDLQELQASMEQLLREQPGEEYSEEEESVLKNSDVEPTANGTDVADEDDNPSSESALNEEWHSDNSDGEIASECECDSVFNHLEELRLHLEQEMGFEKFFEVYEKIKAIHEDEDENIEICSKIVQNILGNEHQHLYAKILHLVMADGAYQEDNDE
The experiment can be described thus: SelectScreen in vitro kinase IC50. Type of experiment: biochemical. The method, then:
as §2

Two compounds from paper PMC3399817 (PLoS ONE, 2012) can be followed below.

Structures are written as SMILES.

T1 sequence (P36896 24-505): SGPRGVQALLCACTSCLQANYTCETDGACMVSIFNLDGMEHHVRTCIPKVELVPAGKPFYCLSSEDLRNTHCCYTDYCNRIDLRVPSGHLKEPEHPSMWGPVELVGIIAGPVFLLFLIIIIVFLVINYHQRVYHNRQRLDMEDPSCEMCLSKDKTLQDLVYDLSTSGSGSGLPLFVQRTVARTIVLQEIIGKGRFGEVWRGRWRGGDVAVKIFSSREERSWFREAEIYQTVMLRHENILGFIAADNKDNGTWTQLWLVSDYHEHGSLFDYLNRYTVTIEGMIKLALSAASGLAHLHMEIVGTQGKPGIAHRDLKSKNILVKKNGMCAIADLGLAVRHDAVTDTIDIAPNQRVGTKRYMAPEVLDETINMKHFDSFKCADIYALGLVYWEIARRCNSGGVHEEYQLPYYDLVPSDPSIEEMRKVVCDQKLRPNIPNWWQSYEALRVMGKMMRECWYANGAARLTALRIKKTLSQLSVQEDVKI
T8 sequence (P42336 whole entry H1047Y): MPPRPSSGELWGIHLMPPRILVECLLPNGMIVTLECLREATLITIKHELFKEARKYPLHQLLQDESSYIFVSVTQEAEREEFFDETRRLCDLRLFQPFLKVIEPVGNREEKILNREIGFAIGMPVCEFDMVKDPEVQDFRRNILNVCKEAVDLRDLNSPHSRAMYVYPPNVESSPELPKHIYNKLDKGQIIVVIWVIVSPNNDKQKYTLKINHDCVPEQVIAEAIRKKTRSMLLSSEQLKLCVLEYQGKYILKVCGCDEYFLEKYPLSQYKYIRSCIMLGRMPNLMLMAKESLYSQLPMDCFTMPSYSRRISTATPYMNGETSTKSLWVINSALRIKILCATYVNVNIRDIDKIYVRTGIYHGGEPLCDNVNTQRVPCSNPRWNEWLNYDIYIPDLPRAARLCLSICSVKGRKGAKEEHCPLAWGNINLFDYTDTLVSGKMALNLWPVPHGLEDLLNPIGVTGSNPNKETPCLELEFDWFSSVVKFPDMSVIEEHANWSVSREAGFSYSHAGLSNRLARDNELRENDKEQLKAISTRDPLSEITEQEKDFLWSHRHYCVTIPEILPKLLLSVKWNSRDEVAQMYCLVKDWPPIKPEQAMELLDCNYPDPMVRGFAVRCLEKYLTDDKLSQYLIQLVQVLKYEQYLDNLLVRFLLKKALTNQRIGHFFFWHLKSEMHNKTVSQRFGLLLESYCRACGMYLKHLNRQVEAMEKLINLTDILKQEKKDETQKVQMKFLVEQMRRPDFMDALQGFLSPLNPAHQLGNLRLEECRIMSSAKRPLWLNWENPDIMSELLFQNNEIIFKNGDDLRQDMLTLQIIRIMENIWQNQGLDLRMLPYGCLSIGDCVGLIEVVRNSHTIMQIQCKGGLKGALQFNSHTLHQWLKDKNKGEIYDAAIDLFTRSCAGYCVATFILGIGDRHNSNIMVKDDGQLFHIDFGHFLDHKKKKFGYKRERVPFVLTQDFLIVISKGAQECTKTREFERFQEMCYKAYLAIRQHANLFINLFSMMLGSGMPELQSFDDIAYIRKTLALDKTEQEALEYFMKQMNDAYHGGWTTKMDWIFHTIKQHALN
T2 sequence (Q9UQM7 whole entry): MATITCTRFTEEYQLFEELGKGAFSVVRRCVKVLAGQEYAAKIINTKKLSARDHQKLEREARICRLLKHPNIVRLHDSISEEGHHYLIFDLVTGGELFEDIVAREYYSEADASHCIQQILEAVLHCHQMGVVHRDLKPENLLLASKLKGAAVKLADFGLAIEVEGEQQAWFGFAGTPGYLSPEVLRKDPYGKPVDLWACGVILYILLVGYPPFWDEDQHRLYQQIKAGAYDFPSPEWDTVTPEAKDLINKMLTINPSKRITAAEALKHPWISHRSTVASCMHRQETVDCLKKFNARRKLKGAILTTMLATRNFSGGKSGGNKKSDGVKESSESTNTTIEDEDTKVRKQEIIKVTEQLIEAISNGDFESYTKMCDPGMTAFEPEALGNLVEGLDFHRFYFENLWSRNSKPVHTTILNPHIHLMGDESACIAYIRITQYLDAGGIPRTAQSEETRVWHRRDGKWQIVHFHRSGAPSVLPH
T4 sequence (P54756 25-1037): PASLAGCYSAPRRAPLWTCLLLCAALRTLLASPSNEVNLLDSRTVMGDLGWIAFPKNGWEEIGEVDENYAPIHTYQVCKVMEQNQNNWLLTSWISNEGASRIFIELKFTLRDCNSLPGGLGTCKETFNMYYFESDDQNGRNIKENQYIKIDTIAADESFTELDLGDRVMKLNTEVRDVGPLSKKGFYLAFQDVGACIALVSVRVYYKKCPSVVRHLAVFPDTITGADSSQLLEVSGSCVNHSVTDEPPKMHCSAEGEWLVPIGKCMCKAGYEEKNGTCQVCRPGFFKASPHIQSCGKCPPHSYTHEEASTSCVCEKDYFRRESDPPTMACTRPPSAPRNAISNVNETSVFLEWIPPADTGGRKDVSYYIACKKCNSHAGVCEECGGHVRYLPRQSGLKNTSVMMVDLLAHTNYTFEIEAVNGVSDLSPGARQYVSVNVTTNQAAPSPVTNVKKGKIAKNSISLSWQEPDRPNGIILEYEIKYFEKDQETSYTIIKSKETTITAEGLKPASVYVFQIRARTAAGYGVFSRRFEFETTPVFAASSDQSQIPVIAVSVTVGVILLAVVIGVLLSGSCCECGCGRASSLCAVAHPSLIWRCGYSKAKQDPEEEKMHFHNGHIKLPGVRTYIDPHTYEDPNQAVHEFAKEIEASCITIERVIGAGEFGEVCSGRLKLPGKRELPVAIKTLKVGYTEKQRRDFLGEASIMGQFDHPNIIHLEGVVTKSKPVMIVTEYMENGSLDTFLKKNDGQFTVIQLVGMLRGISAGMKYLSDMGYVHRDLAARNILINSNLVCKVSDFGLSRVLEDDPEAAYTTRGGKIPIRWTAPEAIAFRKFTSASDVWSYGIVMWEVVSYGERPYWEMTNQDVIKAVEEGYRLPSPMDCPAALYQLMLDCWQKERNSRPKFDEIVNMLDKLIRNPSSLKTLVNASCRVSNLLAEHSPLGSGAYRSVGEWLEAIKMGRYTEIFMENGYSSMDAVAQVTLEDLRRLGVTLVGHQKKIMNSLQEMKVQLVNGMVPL
T9 sequence (P49137 whole entry): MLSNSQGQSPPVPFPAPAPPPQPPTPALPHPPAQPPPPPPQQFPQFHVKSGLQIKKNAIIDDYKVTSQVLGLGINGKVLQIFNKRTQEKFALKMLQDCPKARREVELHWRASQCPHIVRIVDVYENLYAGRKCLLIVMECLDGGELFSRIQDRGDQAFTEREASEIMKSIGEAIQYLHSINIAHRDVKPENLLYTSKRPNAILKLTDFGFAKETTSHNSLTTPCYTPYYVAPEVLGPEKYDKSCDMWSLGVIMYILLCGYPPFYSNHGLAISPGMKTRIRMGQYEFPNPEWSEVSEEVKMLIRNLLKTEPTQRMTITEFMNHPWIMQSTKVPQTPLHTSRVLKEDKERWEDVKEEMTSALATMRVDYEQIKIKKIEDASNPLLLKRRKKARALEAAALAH
T6 sequence (P06239 whole entry): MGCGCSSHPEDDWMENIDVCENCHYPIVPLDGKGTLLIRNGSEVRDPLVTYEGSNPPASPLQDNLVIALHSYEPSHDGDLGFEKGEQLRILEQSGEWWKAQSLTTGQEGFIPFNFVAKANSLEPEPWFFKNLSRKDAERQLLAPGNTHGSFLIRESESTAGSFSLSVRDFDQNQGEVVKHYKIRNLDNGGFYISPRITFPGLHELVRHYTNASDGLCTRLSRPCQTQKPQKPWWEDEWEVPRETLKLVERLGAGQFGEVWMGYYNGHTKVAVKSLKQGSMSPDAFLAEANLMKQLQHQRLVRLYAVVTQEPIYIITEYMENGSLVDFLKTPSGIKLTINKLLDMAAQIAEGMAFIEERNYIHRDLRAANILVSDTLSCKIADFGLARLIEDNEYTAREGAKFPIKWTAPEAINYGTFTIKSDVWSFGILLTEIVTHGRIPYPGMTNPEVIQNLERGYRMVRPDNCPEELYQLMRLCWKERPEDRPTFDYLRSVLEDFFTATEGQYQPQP
T3 sequence (Q92630 whole entry): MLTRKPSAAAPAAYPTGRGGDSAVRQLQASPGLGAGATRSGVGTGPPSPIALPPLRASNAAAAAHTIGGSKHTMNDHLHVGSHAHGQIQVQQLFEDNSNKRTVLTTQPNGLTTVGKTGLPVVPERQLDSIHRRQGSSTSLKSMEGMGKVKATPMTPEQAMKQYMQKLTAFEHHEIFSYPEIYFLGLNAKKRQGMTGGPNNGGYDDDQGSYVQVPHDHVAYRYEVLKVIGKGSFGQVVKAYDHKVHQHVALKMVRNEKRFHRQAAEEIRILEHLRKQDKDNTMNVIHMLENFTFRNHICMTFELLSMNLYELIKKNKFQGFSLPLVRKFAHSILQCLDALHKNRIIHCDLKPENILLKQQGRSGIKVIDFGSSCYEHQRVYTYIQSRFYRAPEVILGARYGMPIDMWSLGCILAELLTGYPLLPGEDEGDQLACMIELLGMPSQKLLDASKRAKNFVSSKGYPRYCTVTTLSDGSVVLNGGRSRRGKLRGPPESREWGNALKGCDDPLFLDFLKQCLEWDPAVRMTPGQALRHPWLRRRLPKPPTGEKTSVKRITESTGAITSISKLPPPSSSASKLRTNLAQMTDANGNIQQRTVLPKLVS
T7 sequence (Q15831 whole entry): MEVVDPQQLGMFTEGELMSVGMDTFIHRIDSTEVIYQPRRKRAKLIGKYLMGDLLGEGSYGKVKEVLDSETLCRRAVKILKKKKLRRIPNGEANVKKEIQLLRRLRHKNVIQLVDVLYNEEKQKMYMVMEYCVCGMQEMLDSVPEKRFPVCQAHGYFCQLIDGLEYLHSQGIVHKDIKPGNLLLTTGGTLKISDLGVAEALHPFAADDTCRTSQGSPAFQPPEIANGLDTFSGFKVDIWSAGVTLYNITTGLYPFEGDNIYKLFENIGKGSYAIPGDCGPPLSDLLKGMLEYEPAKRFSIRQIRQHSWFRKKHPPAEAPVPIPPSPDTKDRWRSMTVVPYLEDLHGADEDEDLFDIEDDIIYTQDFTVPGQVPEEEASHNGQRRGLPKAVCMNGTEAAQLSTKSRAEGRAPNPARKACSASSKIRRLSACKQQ

As to `COc1ccccc1Nc1nc(-c2ccc(OC)c(OC)c2)cc2nccn12` [BAY derivative 6], the “% binding compared to no inhibitor control” value in [1] is recorded as 100%; in [2], 96%; in [3], 56%; in [4], 100%; in experiment [5], 71%; in [6], 41%. Besides, the “% binding compared to no inhibitor control” value is 72% in experiment [7], 100% in experiment [8] and 93% in experiment [9]. Further, the “in vitro kinase activity of MAP4K2, inhibition” value in experiment [10] is on record as “lost its ability to effectively inhibit the in vitro kinase activity of MAP4K2”.

Consider `COc1ccc(-c2cc3nccn3c(Nc3ncccc3C(N)=O)n2)cc1OC.Cl.Cl` [BAY61-3606, 2-[7-(3,4-dimethoxyphenyl)-imidazo [1,2-c]pyrimidin-5-ylamino] nicotinamide dihydrochloride, reference compound], for which the “% binding compared to no inhibitor control” value was determined as 100% in [1]; 64% in [2]; 24% in [3]; 77% in experiment [4]; 93% in experiment [5]; 87% in experiment [6]. For the same compound, the “% binding compared to no inhibitor control” value in experiment [7] is given as 95%; in [8], 80%; in [9], 100%. Further, the IC50 is 4.24 µM in experiment [11] and 0.159 µM in experiment [12].
